According to patent US20230374015A1, “INHIBITORS OF FIBROBLAST GROWTH FACTOR RECEPTOR KINASES” (Kinnate Biopharma Inc., priority 2020, published 2023):
Where a name gives a salt, the structure may show the parent alone.

Target: FGFR2 (Homo sapiens, UniProt P21802)
Assay: FGFR2 Kinase Protocol - Condition 2 (Reaction Biology HotSpot radiometric kinase assay, no preincubation)
Type: biochemical
Conditions: poly[Glu:Tyr] (4:1) 0.2 mg/ml, ATP 100 microM, 2 hr room temperature
In short: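 Ten-point, 3-fold compound dilutions were tested against wildtype or V564F FGFR2 with 100 µM ATP (33P-labelled), no preincubation, and 0.2 mg/ml poly[Glu:Tyr] (4:1) substrate. After 2 hr at room temperature, incorporation was read on P81 filter paper; IC50 fitted from activity remaining relative to vehicle.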

FGFR2, sequence (P21802 22-821): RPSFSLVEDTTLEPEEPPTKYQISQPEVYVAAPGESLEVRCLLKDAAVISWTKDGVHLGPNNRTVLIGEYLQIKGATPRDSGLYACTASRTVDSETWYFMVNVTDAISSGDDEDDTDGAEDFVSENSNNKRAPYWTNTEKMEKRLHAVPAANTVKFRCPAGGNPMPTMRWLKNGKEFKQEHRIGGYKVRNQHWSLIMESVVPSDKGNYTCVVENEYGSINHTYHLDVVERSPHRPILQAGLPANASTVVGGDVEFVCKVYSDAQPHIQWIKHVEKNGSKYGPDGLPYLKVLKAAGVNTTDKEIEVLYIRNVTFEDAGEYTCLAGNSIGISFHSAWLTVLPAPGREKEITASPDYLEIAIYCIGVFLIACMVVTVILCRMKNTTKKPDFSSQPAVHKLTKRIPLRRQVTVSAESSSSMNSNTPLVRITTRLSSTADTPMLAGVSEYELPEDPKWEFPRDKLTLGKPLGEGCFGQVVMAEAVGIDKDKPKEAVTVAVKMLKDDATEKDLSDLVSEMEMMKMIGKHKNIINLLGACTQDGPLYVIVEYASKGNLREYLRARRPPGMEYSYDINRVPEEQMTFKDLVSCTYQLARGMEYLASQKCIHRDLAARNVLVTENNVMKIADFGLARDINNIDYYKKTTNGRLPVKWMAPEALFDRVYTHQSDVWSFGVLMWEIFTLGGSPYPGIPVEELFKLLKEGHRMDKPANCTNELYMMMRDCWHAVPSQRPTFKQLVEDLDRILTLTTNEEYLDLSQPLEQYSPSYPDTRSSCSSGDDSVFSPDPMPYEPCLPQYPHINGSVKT

IC50	IC50 (given as numeric bound)	SMILES
≤ 100 nM		C=CC(=O)N1CC[C@H](n2nc(C#Cc3cc4ncn(CC)c4c(F)c3Cl)c3c(N)ncnc32)C1 [Example 144, 1-[(3S)-3-{4-Amino-3-[2-(6-chloro-1-ethyl-7-fluoro-1,3-benzodiazol-5-yl)ethynyl]pyrazolo[3,4-d]pyrimidin-1-yl}pyrrolidin-1-yl]prop-2-en-1-one]
≤ 100 nM		C=CC(=O)N1C[C@@H](n2cc(C#Cc3c(F)cc4c(ncn4C)c3F)c3c(N)ncnc32)C[C@@H]1COC [Example 61, 1-[(2R,4S)-4-[4-Amino-5-[2-(4,6-difluoro-1-methyl-1,3-benzodiazol-5-yl)ethynyl]pyrrolo[2,3-d]pyrimidin-7-yl]-2-(methoxymethyl)pyrrolidin-1-yl]prop-2-en-1-one]
≤ 100 nM		C=CC(=O)N1C[C@@H](n2nc(C#Cc3c(F)cc4c(ncn4CC)c3F)c3c(N)ncnc32)C[C@@H]1COC(F)(F)F [Example 70, 1-((2R,4S)-4-(4-Amino-3-((1-ethyl-4,6-difluoro-1H-benzo[d]imidazol-5-yl)ethynyl)-1H-pyrazolo[3,4-d]pyrimidin-1-yl)-2-((trifluoromethoxy)methyl)pyrrolidin-1-yl)prop-2-en-1-one]
≤ 100 nM		C=CC(=O)N1C[C@@H](n2nc(C#Cc3ccc4c(cnn4CC)c3)c3c(N)nccc32)C[C@@H]1COC [Example 37, 1-((2R,4S)-4-(4-amino-3-((1-ethyl-1H-indazol-5-yl)ethynyl)-1H-pyrazolo[4,3-c]pyridin-1-yl)-2-(methoxymethyl)pyrrolidin-1-yl)prop-2-en-1-one]
≤ 100 nM		C=CC(=O)N1CC[C@H](n2nc(C#Cc3cc4ncn(CC)c4cc3F)c3c(N)ncnc32)C1 [Example 152, 1-[(3S)-3-{4-Amino-3-[2-(1-ethyl-6-fluoro-1,3-benzodiazol-5-yl)ethynyl]pyrazolo[3,4-d]pyrimidin-1-yl}pyrrolidin-1-yl]prop-2-en-1-one]
≤ 100 nM		C=CC(=O)N1C[C@@H](n2nc(C#Cc3ccc4ocnc4c3)c3c(N)ncnc32)C[C@@H]1COC [Example 115, 1-[(2R,4S)-4-[4-Amino-3-[2-(1,3-benzoxazol-5-yl)ethynyl]pyrazolo[3,4-d]pyrimidin-1-yl]-2-(methoxymethyl)pyrrolidin-1-yl]prop-2-en-1-one]
≤ 100 nM		C=CC(=O)N1C[C@@H](n2nc(C#Cc3ccc4c(c3)ncn4C)c3c(N)nccc32)C[C@@H]1COC(F)(F)F [Example 58, 1-((2R,4S)-4-(4-Amino-3-((1-methyl-1H-benzo[d]imidazol-5-yl)ethynyl)-1H-pyrazolo[4,3-c]pyridin-1-yl)-2-((trifluoromethoxy)methyl)pyrrolidin-1-yl)prop-2-en-1-one formate]
≤ 100 nM		C=CC(=O)N1C[C@@H](n2nc(C#Cc3c(F)cc4nn(C)cc4c3F)c3c(N)ncnc32)C[C@@H]1COC [Example 44, 1-((2R,4S)-4-(4-amino-3-((4,6-difluoro-2-methyl-2H-indazol-5-yl)ethynyl)-1H-pyrazolo[3,4-d]pyrimidin-1-yl)-2-(methoxymethyl)pyrrolidin-1-yl)prop-2-en-1-one]
≤ 100 nM		C=CC(=O)N1C[C@@H](n2nc(C#Cc3cc4ncn(CC)c4cc3F)c3c(N)ncnc32)C[C@@H]1C(F)F [Example 170, 1-((2R,4S)-4-(4-amino-3-((1-ethyl-6-fluoro-1H-benzo[d]imidazol-5-yl)ethynyl)-1H-pyrazolo[3,4-d]pyrimidin-1-yl)-2-(difluoromethyl)pyrrolidin-1-yl)prop-2-en-1-one]
≤ 100 nM		C=CC(=O)N1C[C@@H](n2nc(C#Cc3cc4nc(C)[nH]c4cc3Cl)c3c(N)nccc32)C[C@@H]1COC [Example 100, 1-[(2R,4S)-4-[4-Amino-3-[2-(6-chloro-2-methyl-1H-1,3-benzodiazol-5-yl)ethynyl]pyrazolo[4,3-c]pyridin-1-yl]-2-(methoxymethyl)pyrrolidin-1-yl]prop-2-en-1-one]
	> 500 nM	C=CC(=O)N1CC[C@H](c2nc(C#Cc3cc4ncn(C5CC5)c4cc3F)c3c(N)ncnn23)C1 [Example 200, (S)-1-(3-(4-Amino-5-((1-cyclopropyl-6-fluoro-1H-benzo[d]imidazol-5-yl)ethynyl)imidazo[5,1-f][1,2,4]triazin-7-yl)pyrrolidin-1-yl)prop-2-en-1-one]
≤ 100 nM		C=CC(=O)N1CC[C@H](n2cc(C#Cc3cc4ncn(CC)c4cc3Cl)c3c(N)ncnc32)C1 [Example 143, (S)-1-(3-(4-Amino-5-((6-chloro-1-ethyl-1H-benzo[d]imidazol-5-yl)ethynyl)-7H-pyrrolo[2,3-d]pyrimidin-7-yl)pyrrolidin-1-yl)prop-2-en-1-one]
≤ 100 nM		C=CC(=O)N1C[C@@H](n2nc(C#Cc3c(F)cc4c(nc(C)n4CC)c3F)c3c(N)ncnc32)C[C@@H]1COC [Example 32, 1-((2R,4S)-4-(4-amino-3-((1-ethyl-4,6-difluoro-2-methyl-1H-benzo[d]imidazol-5-yl)ethynyl)-1H-pyrazolo[3,4-d]pyrimidin-1-yl)-2-(methoxymethyl)pyrrolidin-1-yl)prop-2-en-1-one]
≤ 100 nM		C=CC(=O)N1C[C@@H](n2nc(C#Cc3cc4ncn(C)c4cc3Cl)c3c(N)ncnc32)C[C@@H]1C [Example 164, 1-((2S,4S)-4-(4-amino-3-((6-chloro-1-methyl-1H-benzo[d]imidazol-5-yl)ethynyl)-1H-pyrazolo[3,4-d]pyrimidin-1-yl)-2-methylpyrrolidin-1-yl)prop-2-en-1-one]
≤ 100 nM		C=CC(=O)N1C[C@@H](n2nc(C#Cc3cc4ncn(C5CC5)c4cc3F)c3c(N)nccc32)C[C@@H]1C(F)F [Example 182, 1-((2R,4S)-4-(4-amino-3-((1-cyclopropyl-6-fluoro-1H-benzo[d]imidazol-5-yl)ethynyl)-1H-pyrazolo[4,3-c]pyridin-1-yl)-2-(difluoromethyl)pyrrolidin-1-yl)prop-2-en-1-one]
100 to 1000 nM		C=CC(=O)N1C[C@@H](n2nc(C#Cc3c(F)cc4nn(CC)cc4c3F)c3c(N)ncnc32)C[C@@H]1COC [Example 49, 1-((2R,4S)-4-(4-amino-3-((2-ethyl-4,6-difluoro-2H-indazol-5-yl)ethynyl)-1H-pyrazolo[3,4-d]pyrimidin-1-yl)-2-(methoxymethyl)pyrrolidin-1-yl)prop-2-en-1-one]
≤ 100 nM		[2H]C([2H])([2H])OC[C@H]1C[C@H](n2nc(C#Cc3cc4ncn(CC)c4cc3Cl)c3c(N)ncnc32)CN1C(=O)C=C [Example 135, 1-[(2R,4S)-4-[4-Amino-3-[2-(6-chloro-1-ethyl-1,3-benzodiazol-5-yl)ethynyl]pyrazolo[3,4-d]pyrimidin-1-yl]-2-[(2H3)methoxymethyl]pyrrolidin-1-yl]prop-2-en-1-one]
≤ 100 nM		C=CC(=O)N1C[C@@H](n2nc(C#Cc3ccc4c(c3)nc(C)n4CC)c3c(N)nccc32)C[C@@H]1CC#N [Example 53, 2-[(2R,4S)-4-[4-Amino-3-[2-(1-ethyl-2-methyl-1,3-benzodiazol-5-yl)ethynyl]pyrazolo[4,3-c]pyridin-1-yl]-1-(prop-2-enoyl)pyrrolidin-2-yl]acetonitrile; formic acid]
≤ 100 nM		C=CC(=O)N1C[C@@H](n2nc(C#Cc3c(F)cc4c(nc(C)n4CC)c3F)c3c(N)nccc32)C[C@@H]1COC [Example 33, 1-((2R,4S)-4-(4-amino-3-((1-ethyl-4,6-difluoro-2-methyl-1H-benzo[d]imidazol-5-yl)ethynyl)-1H-pyrazolo[4,3-c]pyridin-1-yl)-2-(methoxymethyl)pyrrolidin-1-yl)prop-2-en-1-one]
